Source: patent publication US10023602B2, “Hamamelitannin analogues and uses thereof” (Universiteit Gent, priority 2014, dated 2018)

Legend:
[1] = test system: methicillin resistant S. aureus Mu50 strain (S. aureus ATCC700699) biofilm; assay: Biofilm susceptibility to vancomycin, pre-treatment regimen (biofilm formed in presence of compound, then vancomycin); format: cell-based; settings: for Pretreat (100 μM): percentage Colony Forming Units (CFU's) per biofilm: compound 100 μM during biofilm formation; for Pretreat (100 μM): percentage Colony Forming Units (CFU's) per biofilm / Pretreat. (25 μM): percentage Colony Forming Units (CFU's) per biofilm: then VAN 20 μg/ml, compared to the untreated (negative) control; for EC50: concentration needed to get 50% killing compared to antibiotic alone (VAN 20 μg/ml) and complete killing, read-out: Pretreat. (EC50); for Pretreat. (25 μM): percentage Colony Forming Units (CFU's) per biofilm: compound 25 μM during biofilm formation
Outline: (§1)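 Mu50 biofilms from 10^8 CFU/ml inoculum (4 h adhesion, then 20 h, 37 °C). Pre-treatment: compound (0.1-250 μM) present during biofilm formation, then vancomycin 20 μg/ml alone 24 h; combination: mature biofilm given vancomycin 20 μg/ml plus compound 24 h. Survivors counted by plating versus vancomycin alone.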

[2] = test system: methicillin resistant S. aureus Mu50 strain (S. aureus ATCC700699) biofilm; assay: Biofilm susceptibility to vancomycin, combination treatment regimen (mature biofilm treated with compound plus vancomycin); format: cell-based; settings: for Combin. (100 μM): percentage Colony Forming Units (CFU's) per biofilm: compound 100 μM together with VAN 20 μg/ml on mature biofilm; for Combin. (100 μM): percentage Colony Forming Units (CFU's) per biofilm / Combin. (25 μM): percentage Colony Forming Units (CFU's) per biofilm: compared to the untreated (negative) control; for EC50: concentration needed to get 50% killing compared to antibiotic alone (VAN 20 μg/ml) and complete killing, read-out: Combin. (EC50); for Combin. (25 μM): percentage Colony Forming Units (CFU's) per biofilm: compound 25 μM together with VAN 20 μg/ml on mature biofilm
Outline: as §1

Row | Compound | Pretreat (100 μM): percentage Colony Forming Units (CFU's) per biofilm [1] [percentage] | EC50 [1] [µM] | Combin. (100 μM): percentage Colony Forming Units (CFU's) per biofilm [2] [percentage] | EC50 [2] [µM] | Pretreat. (25 μM): percentage Colony Forming Units (CFU's) per biofilm [1] [percentage] | Combin. (25 μM): percentage Colony Forming Units (CFU's) per biofilm [2] [percentage]
1 | O=C(NC[C@H]1OC(O)[C@@](O)(CNC(=O)c2cc(O)cc(O)c2)[C@@H]1O)c1cc(O)cc(O)c1 (stereo partly drawn) [compound 18, N,N′-(((2R,3R,4R)-3,4,5-trihydroxytetrahydrofuran-2,4-diyl)bis(methylene))bis(3,5-dihydroxybenzamide)] | 37.58 | 116 | 79.55 | 231 | – | –
2 | CN(C)c1ccc(C(=O)NC[C@]2(O)CO[C@H](CNC(=O)c3ccccc3Cl)[C@H]2O)cc1 [compound 237, 2-chloro-N-(((2R,3R,4S)-4-((4-(dimethylamino)benzamido)methyl)-3,4-dihydroxytetrahydrofuran-2-yl)methyl)benzamide] | – | 47.6 | – | 69.7 | 58.79 | 47.56
3 | O=C(NC[C@]1(O)CO[C@H](CNC(=O)c2ccccc2Cl)[C@H]1O)c1cccc(Cl)c1 [compound 241, 2-chloro-N-(((2R,3R,4S)-4-((3-chlorobenzamido)methyl)-3,4-dihydroxytetrahydrofuran-2-yl)methyl)benzamide] | – | – | – | – | 98.17 | 81.35
4 | CN(C)c1ccccc1C(=O)NC[C@H]1OC[C@@](O)(CNC(=O)c2ccccc2)[C@@H]1O [compound 174, N-(((2R,3R,4S)-4-(benzamidomethyl)-3,4-dihydroxytetrahydrofuran-2-yl)methyl)-2-(dimethylamino)benzamide] | 28.01 | – | 11.11 | – | – | –
5 | Cc1ccc(C(=O)NC[C@H]2OC[C@@](O)(CNC(=O)c3ccccc3)[C@@H]2O)cc1 [compound 151, N-(((2R,3R,4S)-4-(benzamidomethyl)-3,4-dihydroxytetrahydrofuran-2-yl)methyl)-4-methylbenzamide] | 22.36 | – | 24.59 | – | – | –
6 | COc1ccc(C(=O)NC[C@H]2OC[C@@](O)(CNC(=O)c3ccccc3)[C@@H]2O)cc1OC [compound 183, N-(((2R,3R,4S)-4-(benzamidomethyl)-3,4-dihydroxytetrahydrofuran-2-yl)methyl)-3,4-dimethoxybenzamide] | 60.04 | – | 61.60 | – | – | –
7 | O=C(NC[C@H]1OC[C@@](O)(CNC(=O)c2ccccc2Cl)[C@@H]1O)c1ccnnc1 [compound 251, N-(((2R,3R,4S)-4-((2-chlorobenzamido)methyl)-3,4-dihydroxytetrahydrofuran-2-yl)methyl)pyridazine-4-carboxamide] | 3.85 | 3.38 | 37.03 | 98.9 | – | –
8 | O=C(NC[C@H]1OC[C@@](O)(CNC(=O)c2ccccc2)[C@@H]1O)c1ccccc1 [compound 188, N,N′-(((2R,3R,4S)-3,4-dihydroxytetrahydrofuran-2,4-diyl)bis(methylene))dibenzamide] | 34.36 | – | 34.64 | – | – | –
9 | O=C(NC[C@]1(O)CO[C@H](CN2Cc3ccccc3C2=O)[C@H]1O)c1ccccc1 [compound 230, N-(((3S,4R,5R)-3,4-dihydroxy-5-((1-oxoisoindolin-2-yl)methyl)tetrahydrofuran-3-yl)methyl)benzamide] | 24.90 | 57.7 | 30.15 | 60.2 | – | –
